From ChEMBL document CHEMBL1806411, “Opioid δ₁ receptor antagonist 7-benzylidenenaltrexone as an effective resistance reverser for chloroquine-resistant Plasmodium chabaudi” (Bioorg Med Chem Lett, 2011)
Activity calls are given as the source filed them. No cut-off for these calls is given here.

Key:
Format in all cases: functional, organism-based
Plasmodium chabaudi [1] = test: Antimalarial activity against chloroquine-resistant Plasmodium chabaudi infected in mouse assessed as parasitemia at 10 mg/kg, po administered for 3 consecutive days; set-up: dose 10 mg/kg
Plasmodium chabaudi [2] = test: Reversal of chloroquine-resistance in Plasmodium chabaudi infected in mouse at 10 mg/kg, po coadministered with chloroquine 3 mg/kg, iv administered for 3 consecutive days measured on day 4
Plasmodium chabaudi [3] = test: Reversal of chloroquine-resistance in Plasmodium chabaudi infected in mouse at 20 mg/kg, po coadministered with chloroquine 3 mg/kg, iv administered for 3 consecutive days measured on day 4

SMILES | Activity (Plasmodium chabaudi [1]) | Activity (Plasmodium chabaudi [2]) | Activity (Plasmodium chabaudi [3])
Oc1ccc2c3c1O[C@H]1c4[nH]c5c(c4C[C@@]4(O)[C@@H](C2)N(CC2CC2)CC[C@]314)C[C@@]1(O)[C@H]2Cc3ccc(O)c4c3[C@@]1(CCN2CC1CC1)[C@H]5O4 | inactive | Active | –
O=C1CC[C@@]2(O)[C@H]3Cc4ccc(O)c5c4[C@@]2(CCN3CC2CC2)[C@H]1O5 | inactive | Active | –
O=C1/C(=C/c2ccccc2)C[C@@]2(O)[C@H]3Cc4ccc(O)c5c4[C@@]2(CCN3CC2CC2)[C@H]1O5 | inactive | Active | –
COc1ccc(CCN(C)CCCC(C#N)(c2ccc(OC)c(OC)c2)C(C)C)cc1OC (stereo not drawn) | – | – | Active
CCN(CC)CCCC(C)Nc1ccnc2cc(Cl)ccc12 (stereo not drawn) | inactive | inactive | –
Oc1ccc2c3c1O[C@H]1c4oc5ccccc5c4C[C@@]4(O)[C@@H](C2)N(CC2CC2)CC[C@]314 | Active | Active | –
Oc1ccc2c3c1O[C@H]1c4[nH]c5ccccc5c4C[C@@]4(O)[C@@H](C2)N(CC2CC2)CC[C@]314 | inactive | Active | –
